In patent publication US20050026223A1, “Method and compositions for increasing bone mass” (The Board of Trustees of the University of Arkansas, priority 1999, published 2005):
Values joined by “and” are separate entries in the source; they are usually repeats but may differ in a detail not shown here. Equal values may be shown once.

Columns and labels:
wild type HeLa cells = assay: Etoposide-induced apoptosis of wild type HeLa cells; format: cell-based, human; conditions: compound 10^−8 M 1 h, etoposide 5×10^−5 M 6 hour
Description: CMV promoter alone and CMV promoter-driven cDNA for mERα or mErβ were stably transfected into HeLa cells. […] Cells were trypsinized, pelleted and trypan blue positive cells enumerated. Each bar represents mean of duplicate experiments ±SEM. *P<0.02 versus etoposide alone.
In this experiment, instead of calvaria cells, human HeLa cells which contain undetectable, if any, estrogen receptor were used. HeLa cells were stably transfected with either a CMV promoter-driven cDNA for the murine estrogen receptor-alpha (mERα) or a CMV promoter-driven cDNA for the murine estrogen receptor-beta (mERβ). […] Cells were trypsinized, pelleted and trypan blue positive cells were enumerated.

[1] = BMD by dual-energy x-ray absorptiometry in intact or ovariectomized mice, 28 days; format: in vivo; parameters: global 1 (BMD) / hindquart 1 (BMD) / spine 1 (BMD) / global 2 (BMD) / hindquart 2 (BMD) / spine 2 (BMD) / global 1 (BMD), mean / hindquart 1 (BMD), mean / spine 1 (BMD), mean / global 2 (BMD), mean / hindquart 2 (BMD), mean / spine 2 (BMD), mean: unit not given here; conditions: for Global BMD: 2000 ng/g body weight for 28 days, mean; for global 2 (BMD), mean / hindquart 2 (BMD), mean / spine 2 (BMD), mean / global 2 (BMD) / hindquart 2 (BMD) / spine 2 (BMD): 2000 ng/g for 28 days, end of experiment; for global 2 (BMD), mean / hindquart 2 (BMD), mean / spine 2 (BMD), mean / global 1 (BMD), mean / hindquart 1 (BMD), mean / spine 1 (BMD), mean: group mean; for global 2 (BMD) / hindquart 2 (BMD) / spine 2 (BMD) / global 1 (BMD) / hindquart 1 (BMD) / spine 1 (BMD): individual animals; for global 1 (BMD), mean / hindquart 1 (BMD), mean / spine 1 (BMD), mean / global 1 (BMD) / hindquart 1 (BMD) / spine 1 (BMD): 2000 ng/g group, day 0 initial measurement
Procedure: In a representative experiment of this sort, six 4-5 month old female mice per group are screened twice for BMD in a four week period immediately prior to the initiation of the experiment to establish that peak adult bone mass has been attained. A subset of mice are then ovariectomized. Intact and ovariectomized mice are treated with vehicle, or 20, 200 or 2000 ng/g body weight estratriene-3-ol or another test compound.
Stock solutions of the test agents (10,000 μg/ml) are maintained in approximately 2.0 ml of 95% ethanol. These stocks are diluted in 95% ethanol to make 1000 μg/ml and 100 μg/ml concentrations. The concentration of the stocks is checked spectrophotometrically. For each animal injection, the test agent is diluted in sesame oil and sonicated. Test agents are administered for 28 days by subcutaneous injections on alternative days. The mice are weighed weekly and serum samples are collected at appropriate times for analysis of bone biochemical markers, such as osteocalcin or collagen cross-links. Tetracycline labeling is performed by administration of the antibiotic (30 mg/kg) at 2 and 8 days prior to the end of each experiment.
During the 28 day experiment, BMD is determined in live animals at day 0, 14 and 28. Following animal sacrifice at the end of the experiment, the vertebral bones L1-L4 are collected for fixation and embedded undecalcified in methylmethacrylate plastic for the determination of the prevalence of osteoblast and osteocyte apoptosis and other static and dynamic histomorphometric measurements. L5 vertebrae are isolated for determining anti-fracture efficacy of the compounds by assaying compression, 3 point bending and other appropriate biomechanical tests. Results confirming the expected efficacy of these compounds show decreased prevalence of osteoblast and/or osteocyte apoptosis, and/or positive BMD changes, and/or increased cancellous bone area, and/or increased rate of bone formation, and/or increased biomechanical strength.
As an example, the results of an experiment whereby 2000 ng/g body weight of estratriene-3-ol was administered for 28 days to estrogen-replete (intact) or estrogen-deficient (ovariectomized) mice are shown in Table 2.
Each row represents values for individual animals. The first three sets of numbers represent the initial BMD measurements (by dual-energy x-ray absorptiometry with Hologic QDR2000 plus, using customized software) at day 0 and the last three BMD measurements at the end of the experiment. Global=BMD of the entire skeleton minus the head and tail; hindquarters=the mean BMD of both hindlimbs; spine=the BMD of cervical, thoracic and lumbar spine.

[2] = tested on: extracellular signal regulated kinases (ERKs) 1 and 2; assay: Western blot of phosphorylated ERK1/2 in MLO-Y4 osteocytic cells; format: cell-based, murine
Procedure: (§1) MLO-Y4 osteocytic cells were incubated for 25 minutes in serum-free medium. […] Cell lysates were prepared and proteins were separated by electrophoresis in polyacrylamide gels and transferred to PVDF membranes. Western blotting was performed using a specific antibody recognizing phosphorylated ERKs 1 and 2, followed by reblotting with an antibody recognizing total ERKs. Blots were developed by enhanced chemiluminescence.
MLO-Y4 cells were incubated for 25 minutes in serum-free medium in the presence or absence of 50 μM PD98059. […] Cell lysates were prepared and proteins were separated by electrophoresis in polyacrylamide gels and transferred to PVDF membranes. Western blotting was performed using a specific antibody recognizing phosphorylated ERKs 1 and 2, followed by reblotting with an antibody recognizing total ERKs. Blots were developed by enhanced chemiluminescence.
as §1, with “In this experiment, MLO-Y4” for “MLO-Y4”, “extracellular signal regulated kinases” for “ERKs”, “extracellular signal regulated kinases.” for “ERKs.”, “chemiluminescence. […] This effect is too rapid to be accounted for by the classical mechanism of estrogen action.” for “chemiluminescence.”
In this experiment, MLO-Y4 osteocytic cells were incubated for 25 minutes in serum-free medium in the presence or absence of 50 μM PD98059. […] Cell lysates were prepared and proteins were separated by electrophoresis in polyacrylamide gels and transferred to PVDF membranes. Western blotting was performed using a specific antibody recognizing phosphorylated extracellular signal regulated kinases 1 and 2, followed by reblotting with an antibody recognizing total extracellular signal regulated kinases. Blots were developed by enhanced chemiluminescence.

[3] = Ovx mice, t-test ovx vs 2000 ng/g 0.0001

Structure (SMILES): C[C@@]12CCC[C@H]1[C@@H]1CCc3cc(O)ccc3[C@H]1CC2 [estratriene-3-ol]
- Effect on etoposide-induced apoptosis (wild type HeLa cells): none of the three compounds had any effect
- Global BMD ([1]; Ovx mice, p < 0.00001): 0.0555 ± 0.0011 g/cm2
- global 2 (BMD), mean ([1]; Ovx mice, t-test ovx vs 2000 ng/g 0.0000): 0.0555
- hindquart 2 (BMD), mean [1, 3]: 0.0618
- spine 2 (BMD), mean [1, 3]: 0.0599
- global 2 (BMD) ([1]; Ovx mice): 0.0565 and 0.0557 and 0.0548 and 0.0545 and 0.0564 and 0.0568 and 0.0550 and 0.0539
- hindquart 2 (BMD) ([1]; Ovx mice): 0.0602 and 0.0632 and 0.0599 (2×) and 0.0624 and 0.0598 and 0.0647 and 0.0630
- spine 2 (BMD) ([1]; Ovx mice): 0.0608 and 0.0585 and 0.0584 and 0.0598 and 0.0610 and 0.0625 and 0.0578 and 0.0605
- global 1 (BMD), mean ([1]; Ovx mice): 0.0534
- hindquart 1 (BMD), mean ([1]; Ovx mice): 0.0573
- spine 1 (BMD), mean ([1]; Ovx mice): 0.0579
- global 1 (BMD) ([1]; Ovx mice): 0.0505 and 0.0542 and 0.0496 and 0.0540 and 0.0526 and 0.0569 and 0.0565 and 0.0528
- hindquart 1 (BMD) ([1]; Ovx mice): 0.0527 and 0.0588 and 0.0504 and 0.0596 and 0.0547 and 0.0604 and 0.0591 and 0.0582
- spine 1 (BMD) ([1]; Ovx mice): 0.0547 and 0.0581 and 0.0542 and 0.0586 and 0.0580 and 0.0628 and 0.0603 and 0.0568
- Global BMD ([1]; intact mice, p < 0.002): 0.0554 ± 0.0015 g/cm2
- global 2 (BMD), mean ([1]; intact mice, t-test vehicle vs 2000 ng/g 0.0036): 0.0554
- spine 2 (BMD), mean ([1]; intact mice, t-test vehicle vs 2000 ng/g 0.0037): 0.0609
- hindquart 2 (BMD), mean ([1]; intact mice, t-test vehicle vs 2000 ng/g 0.0077): 0.0605
- global 2 (BMD) ([1]; intact mice): 0.0550 and 0.0543 and 0.0541 and 0.0568 (2×) and 0.0537 and 0.0574
- hindquart 2 (BMD) ([1]; intact mice): 0.0585 and 0.0603 and 0.0619 and 0.0629 and 0.0640 and 0.0554 and 0.0605
- spine 2 (BMD) ([1]; intact mice): 0.0602 and 0.0604 and 0.0601 and 0.0613 and 0.0620 and 0.0588 and 0.0632
- global 1 (BMD), mean ([1]; intact mice): 0.0527
- hindquart 1 (BMD), mean ([1]; intact mice): 0.0562
- spine 1 (BMD), mean ([1]; intact mice): 0.0571
- global 1 (BMD) ([1]; intact mice): 0.0486 and 0.0511 and 0.0543 and 0.0537 and 0.0533 and 0.0521 and 0.0560
- hindquart 1 (BMD) ([1]; intact mice): 0.0509 and 0.0565 and 0.0605 and 0.0577 and 0.0546 and 0.0544 and 0.0587
- spine 1 (BMD) ([1]; intact mice): 0.0511 and 0.0560 and 0.0593 and 0.0584 and 0.0571 and 0.0555 and 0.0623
- Activation of ERKs (phosphorylated fraction of ERK1/2) ([2]; 10^−8 M, 5, 15 or 30 minutes): activated
- Ability to activate ERKs in the presence of PD98059 ([2]; compound 10^−8 M, 5 minutes, 50 μM PD98059): abrogated
